Measured values published in patent publication US20220079966A1, “HYALURONAN SYNTHESIS INHIBITION FOR TREATING AUTOIMMUNE, INFLAMMATORY, FIBROTIC, OR PROLIFERATIVE DISEASES OR DISORDERS” (The Board of Trustees of the Leland Stanford Junior …, priority 2018, published 2022).

What was measured:
CHO-HAS3 cells = assay: HA production by CHO-HAS3 cells engineered to overexpress HAS3; format: cell-based; details: 48 hours; non-hydrolyzable 4-MUG at comparable doses to 4-MU or conventional 4-MUG
Protocol: Samples were thawed and assayed for HA levels using a modified HA ELISA as previously described (Nagy N., et al., J. Clin. Invest. 2015; 125(10):3928-3940). Each sample was analyzed in triplicate with a mean value obtained per sample. For cell normalization, LI-COR CellTag™ 700 Stain was used according to the manufactures protocol.
To test whether 4-MUG has bioactivity independently of any possible conversion to 4-MU, a non-hydrolyzable version of 4-MUG was generated (FIG. 5A).

human cell lines = assay: HA synthesis by human cell lines (unpublished data); format: cell-based; details: compared with parent drug 4-MU
[1] = Water solubility (statement); format: physicochemical
[2] = cited from earlier work
blood leukocytes = assay: Leukocyte 4-MU uptake in mice on oral 4-MU (flow cytometry, Pacific Blue channel); format: in vivo, C57Bl/6J mice; details: blood leukocyte subsets, days 0, 2, 7, 14
Description: Next, the uptake of 4-MU by different leukocyte subsets was examined. To this end, mice were fed 4-MU and 4-MU signal was examined on blood leukocytes from representative animals at intervals of 0, 2, 7, and 14 days after the initiation of 4-MU treatment. […] Bold histograms depict signal in 4-MU treated mice, shaded histograms depict background Pacific Blue signal in untreated mice. Cell surface markers were stained to examine 4-MU uptake by multiple cell types, including CD4+ T-cells (CD3+CD4+), CD8+ T-cells (CD3+CD8+), B-cells (I-A/I-E+B220+) dendritic cells (DC; I-A/I-E+CD11c+), macrophages (Mc); I-A/I-E+CD11c−), neutrophils (Ly6G/C+CD14+) and monocytes (Ly6G/C-CD14+).
C57Bl/6J mice were treated with 4-MU and leukocytes from representative animals were isolated from the blood at baseline (before 4-MU treatment) and at intervals of 2, 7, and 14 days after the initiation of chow. […] To detect fluorescence emitted by 4-MU using flow cytometry on specific leukocyte subsets, peripheral blood red cells were lysed using Ammonium-Chloride-Potassium (ACK) buffer, and leukocytes were stained with the following fluorochrome-conjugated antibodies: BV650-CD3 (17-A2), BV785-CD4 (RM4-5), APC-CD11c (N418), PE-CD14 (Sa2-8), PE-Cy7-Ly-6G/C (RB6-8C5), PE-CyS. […] Samples were run on a BD™ LSRII flow cytometer (Beckon Dickinson) and data was analyzed using FlowJo software (TreeStar).

[3] = set-up: species or system mice; details: mouse, in vivo
Protocol: The 4-MU (Alfa Aesar) was pressed into mouse chow (TestDiet, St. Louis, Mo.) and irradiated before shipment, as previously described (Nagy N., et al., Circulation. 2010; 122(22):2313-2322). This chow formulation delivers 250 mg/mouse/day, yielding a serum drug concentration of 640.3±17.2 nmol/L in mice, as measured by HPLC-MS. 4-MUG (ChemImpex, Wood Dale, Ill.) was distributed in the drinking water at a concentration of 2 mg/ml, delivering 10 mg/mouse/day, yielding a serum drug concentration of 357.1±72.6 ng/mL in mice, as measured by LC-MS/MS. Mice were initiated on 4-MU and 4-MUG at five, eight or twelve weeks of age, unless otherwise noted, and were maintained on this diet until they were euthanized, unless otherwise noted. For analysis of Foxp3+ regulatory T-cell numbers in naïve mice, mice were treated daily with 0.5 mg of 4-MU or 1.0 mg 4-MUG in 200 μl 0.08% carboxymethylcellulose in saline by intra-peritoneal injection.
4-methylumbelliferone-13C4 (Toronto Research Chemicals, Ontario, Canada) was used as the internal standard (IS) for 4-MU and 7-hydroxycoumarin β-D-glucuronide (Toronto Research Chemicals, Ontario, Canada) as the IS for 4-MUG. The neat stock solutions of 4-MU and 4-MUG were mixed and diluted in 50% methanol to prepare the spiking solutions ranging from 1 ng/mL to 5000 ng/mL for each compound. […]

| water solubility [1] | time period of oral treatment required for leukocyte populations to take up 4-MU (blood leukocytes) | amount of 4-MUG in fat and muscle, 4-MU treatment compared to 4-MUG treatment [3] | Compound | HA production by CHO-HAS3 cells (CHO-HAS3 cells) | inhibition of HA synthesis by human cell lines (human cell lines) | fraction of a single intravenous dose eliminated as the 4-MUG metabolite in urine ([2]; in humans, single intravenous dose of 4-MU) | half-life ([2]; in humans) | share of 4-MU metabolism accounted for by glucuronidation into 4-MUG ([2]; in humans) | fraction of a given dose excreted unchanged in the urine ([2]; species not given) | systemic oral bioavailability ([2]; species not given) |
| --- | --- | --- | --- | --- | --- | --- | --- | --- | --- | --- |
| water-soluble |  |  | Cc1cc(=O)oc2cc(O[C@@H]3O[C@H](C(=O)O)[C@@H](O)[C@H](O)[C@H]3O)ccc12 [4-MUG, 4-methylumbelliferone-glucuronide] | directly inhibits HA synthesis | just as well as the parent drug |  |  |  |  |  |
|  | 1-2 weeks | significantly higher amount of 4-MUG | Cc1cc(=O)oc2cc(O)ccc12 [4-MU, 4-methylumbelliferone] |  |  | 93% | 28 min | over 90% | < 1% | < 3% |
